Assay results taken from patent US20210395210A1, “INHIBITION OF BACTERIAL CHAPERONIN SYSTEMS” (THE TRUSTEES OF INDIANA UNIVERSITY, priority 2018, published 2021).
Like-named read-outs stand apart in the source and are kept apart here.

Key:
native MDH = target: T1, native MDH (Sus scrofa, UniProt P00346); test: Counter-screen for inhibition of native MDH enzymatic activity; type: biochemical, pig; conditions: for inhibition of native MDH enzymatic activity (in words): false-positive counter-screen
T1 construct: soluble pig heart MDH from Roche, product #10127248001; purchased Roche 10127248001; host or cells: pig heart
T1 sequence (P00346 25-338): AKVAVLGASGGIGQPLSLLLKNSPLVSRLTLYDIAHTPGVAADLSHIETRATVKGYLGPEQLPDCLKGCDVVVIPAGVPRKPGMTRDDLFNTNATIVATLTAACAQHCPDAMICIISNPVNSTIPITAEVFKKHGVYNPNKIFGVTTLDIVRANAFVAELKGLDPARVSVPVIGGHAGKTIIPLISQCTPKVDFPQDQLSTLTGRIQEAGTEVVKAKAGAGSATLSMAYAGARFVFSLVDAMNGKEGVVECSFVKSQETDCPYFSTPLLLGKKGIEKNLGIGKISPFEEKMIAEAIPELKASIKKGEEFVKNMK
Procedure: Reagent Preparations & Assay Protocol: This assay was performed as described above for the GroEL/ES-dMDH refolding assay; however, the assay protocol differed in the sequence of compound addition to the assay plates. The refolding reactions were allowed to proceed for 45 min at 37° C. in the absence of test compounds (complete refolding of MDH occurs), then quenched with the EDTA stock. Compounds were then pin-transferred into the plates after the EDTA quenching step; thus, compounds effects are only possible by inhibiting the fully-refolded MDH reporter substrate. […] A340 nm measurements were recorded at 0.5 minutes (start point) and at successive time points until the amount of NADH consumed reached ˜90% (end point, generally between 20-35 minutes). Compounds were tested in 8-point, 3-fold dilution series (62.5 μM to 29 nM during the reporter reaction) in clear, flat-bottom 384-well microtiter plates. DMSO was used as a negative control, and previously discovered native MDH inhibitors were used as positive controls. […] Results presented represent the averages of IC50 values obtained from at least quadriplicate (duplicate of duplicate) replicates.

[1] = system: Enterococcus faecium (ATCC 19434); test: Bacterial proliferation assay, E. faecium; type: cell-based
Source text: (§1) Bacterial Strains: Enterococcus faecium—(Orla-Jensen) Schleifer and Kilpper-Balz strain NCTC 7171 (ATCC 19434); Drug sensitive Staphylococcus aureus—Rosenbranch strain Seattle 1945 (ATCC 25923); Methicillin resistant S. aureus (MRSA)—Rosenbach strain HPV107 (ATCC BAA-44); Klebsiella Pneumonia—(Schroeter) Trevisan strain NCTC 9633 (ATCC 13883); Acinetobacter baumannii—Bouvet and Grimont strain 2208 (ATCC 19606); Pseudomonas aeruginosa—(Schroeter) Migula strain NCTC 10332 (ATCC 10145); Enterobacter cloacae—E. cloacae, subsp. cloacae (Jordan) Hormaeche and Edwards strain CDC 442-68 (ATCC 13047).
(§2) Growth Media: All bacteria were grown in Brain Heart Infusion (BHI) broth/agar (Becton, Dickinson and Company). All liquid cultures were grown in BHI media supplemented with 25 mg/L Ca^2+ and 12.5 mg/L Mg^2+ to mimic free physiological concentrations of these cations. A 10 mg/mL Ca^2+ stock solution was prepared by dissolving 3.68 g of CaCl2.2H2O in 100 mL of deionized water, and a 10 mg/mL Mg^2+ stock solution was prepared by dissolving 8.36 g of MgCl2.6H2O in 100 mL deionized water. Both stock solutions were filter-sterilized using 0.2 μm pore size cellulose-acetate filters. 2.5 mL of the sterile 10 mg/mL Ca^2+ stock and 1.25 mL of the sterile 10 mg/mL Mg^2+ stock solutions were added per 1 L of autoclaved BHI medium to obtain 25 mg/L Ca^2+ and 12.5 mg/L Mg^2+ ions, respectively.
(§3) General Assay Protocol: Stock bacterial cultures were streaked onto BHI agar plates and grown overnight at 37° C. Fresh aliquots of broth were inoculated with single bacterial colonies and the cultures were grown overnight at 37° C. with shaking (240 rpm) in cation adjusted BHI media. The following morning, the overnight cultures were sub-cultured (1:5 dilution) into fresh aliquots of cation adjusted BHI media and grown at 37° C. for 1-2 hours with shaking. After 2 h, cultures were diluted into fresh media to achieve final OD600 readings of 0.017. Aliquots of these diluted cultures (30 μL) were added to clear, flat-bottom, 384-well polystyrene plates that were stamped with 0.5 μL of test compounds in 20 μL media. […] Plates were sealed with “Breathe Easy” oxygen permeable membranes (Diversified Biotech) and left to incubate at 37° C. without shaking (stagnant assay). OD600 nm readings were taken at either 6-8 h (S. aureus, MRSA, K. pneumonia, E. cloacae, and P. aeruginosa) or 24 h (E. faecium and A. baumannii). A second set of baseline control plates were prepared analogously, but without any bacteria added, to correct for possible compound absorbance and/or precipitation. Plates were then read at 600 nm using a Molecular Devices SpectraMax Plus384 microplate reader. […] Results presented represent the averages of EC50 values obtained from at quadriplicate (duplicate of duplicate) replicates.

[2] = system: Drug sensitive Staphylococcus aureus (ATCC 25923); test: Bacterial proliferation assay, drug sensitive S. aureus; type: cell-based
Source text: as §1, §2, §3

[3] = system: Methicillin resistant S. aureus (MRSA) (ATCC BAA-44); test: Bacterial proliferation assay, MRSA; type: cell-based, Staphylococcus aureus; conditions: Staphylococcus aureus
Source text: as §1, §2, §3

[4] = system: Klebsiella Pneumonia (ATCC 13883); test: Bacterial proliferation assay, K. pneumoniae; type: cell-based
Source text: as §1, §2, §3

[5] = system: Acinetobacter baumannii (ATCC 19606); test: Bacterial proliferation assay, A. baumannii; type: cell-based
Source text: as §1, §2, §3

[6] = system: Enterobacter cloacae (ATCC 13047); test: Bacterial proliferation assay, E. cloacae; type: cell-based
Source text: as §1, §2, §3

[7] = log of IC50 (μM scale), with standard deviation, read-out: log(IC50) Native MDH Reporter (converted)
[8] = read-out: Biochemical Assay IC50 Native MDH Reporter
[9] = ATCC19434, 24 h, read-out: Bacterial Proliferation EC50 E. faecium
[10] = ATCC19434, read-out: log(EC50) Bacterial Proliferation Assay C. faecium (converted)
[11] = ATCC25923, read-out: Bacterial Proliferation EC50 S. aureus Sensitive
[12] = ATCC25923, read-out: log(EC50) Bacterial Proliferation Assay S. aureus Sensitive (converted)
[13] = read-out: Bacterial Proliferation EC50 S. aureus Resistant
[14] = read-out: log(EC50) Bacterial Proliferation Assay S. aureus Resistant (converted)
[15] = ATCC13883, read-out: Bacterial Proliferation EC50 K. pneumoniae
[16] = ATCC13883, read-out: log(EC50) Bacterial Proliferation Assay K. pneumoniae (converted)
[17] = ATCC19606, 24 h, read-out: Bacterial Proliferation EC50 A. baumannii
[18] = ATCC19606, read-out: log(EC50) Bacterial Proliferation Assay A. baumannii (converted)
[19] = ATCC13047, read-out: Bacterial Proliferation EC50 E. cloacae
[20] = ATCC13047, read-out: log(EC50) Bacterial Proliferation Assay E. cloacae (converted)

Row | SMILES | inhibition of native MDH enzymatic activity (in words) (native MDH) | IC50 (native MDH; [7]) | IC50 (native MDH; [8]) | EC50 [1, 9] | EC50 [1, 10] | EC50 [2, 11] | EC50 [2, 12] | EC50 [3, 13] | EC50 [3, 14] | EC50 [4, 15] | EC50 [4, 16] | EC50 [5, 17] | EC50 [5, 18] | EC50 [6, 19] | EC50 [6, 20] | also measured
1 | O=C(Nc1ccc(Sc2nc3ccccc3s2)cc1)c1cccc(Br)c1O [Compound 6, N-(4-(Benzo[d]thiazol-2-ylthio)phenyl)-3-bromo-2-hydroxybenzamide] | inactive against the reporter enzymes | > 63.1 µM | > 63 µM | 11 µM | 11.2 µM | 0.76 µM | 0.759 µM | 1.1 µM | 1.1 µM | > 100 µM | > 100 µM | 12 µM | 11.5 µM | > 100 µM | > 100 µM | 
2 | O=C(Nc1ccc(Sc2nc3ccccc3s2)cc1)c1cc(Br)ccc1O [Compound 7, N-(4-(Benzo[d]thiazol-2-ylthio)phenyl)-5-bromo-2-hydroxybenzamide] | inactive against the reporter enzymes | > 63.1 µM | > 63 µM | 19 µM | 19.5 µM | 0.12 µM | 0.12 µM | 0.14 µM | 0.141 µM | > 100 µM | > 100 µM | > 100 µM | > 100 µM | > 100 µM | > 100 µM | 
3 | O=C(Nc1ccc(Sc2nc3ccccc3s2)cc1)c1ccccc1O [Compound 8, N-(4-(Benzo[d]thiazol-2-ylthio)phenyl)-2-hydroxybenzamide] |  | > 63.1 µM | > 63 µM |  |  |  |  |  |  |  |  |  |  |  |  | EC50 ([1]; ATCC19434, OD600 at 24 h, read-out: Bacterial Proliferation EC50 E. faecium): 67 µM; EC50 ([1]; ATCC19434, log of EC50 (μM scale), with standard deviation, read-out: log(EC50) Bacterial Proliferation Assay C. faecium (converted)): 67.6 µM; EC50 ([2]; ATCC25923, OD600 at 6-8 h, read-out: Bacterial Proliferation EC50 S. aureus Sensitive): 0.2 µM; EC50 ([2]; ATCC25923, log of EC50 (μM scale), with standard deviation, read-out: log(EC50) Bacterial Proliferation Assay S. aureus Sensitive (converted)): 0.204 µM; EC50 ([3]; MRSA, OD600 at 6-8 h, read-out: Bacterial Proliferation EC50 S. aureus Resistant): 0.41 µM; EC50 ([3]; MRSA, log of EC50 (μM scale), with standard deviation, read-out: log(EC50) Bacterial Proliferation Assay S. aureus Resistant (converted)): 0.407 µM; EC50 ([4]; ATCC13883, OD600 at 6-8 h, read-out: Bacterial Proliferation EC50 K. pneumoniae): > 100 µM; EC50 ([4]; ATCC13883, log of EC50 (μM scale), with standard deviation, read-out: log(EC50) Bacterial Proliferation Assay K. pneumoniae (converted)): > 100 µM; EC50 ([5]; ATCC19606, OD600 at 24 h, read-out: Bacterial Proliferation EC50 A. baumannii): > 100 µM; EC50 ([5]; ATCC19606, log of EC50 (μM scale), with standard deviation, read-out: log(EC50) Bacterial Proliferation Assay A. baumannii (converted)): > 100 µM; EC50 ([6]; ATCC13047, OD600 at 6-8 h, read-out: Bacterial Proliferation EC50 E. cloacae): > 100 µM; EC50 ([6]; ATCC13047, log of EC50 (μM scale), with standard deviation, read-out: log(EC50) Bacterial Proliferation Assay E. cloacae (converted)): > 100 µM
4 | O=C(Nc1cccc(Cl)c1)c1cc(Br)cc(Br)c1O [Compound 9, 3,5-Dibromo-N-(3-chlorophenyl)-2-hydroxybenzamide] |  | 25.1 µM | 27 µM | 73 µM | 72.4 µM | 0.66 µM | 0.661 µM | 1.1 µM | 1.1 µM | 95 µM | 95.5 µM | 46 µM | 45.7 µM | 78 µM | 77.6 µM | 
